# Experimental data reported in patent US20240189283A1, “L-ERGOTHIONEINE-CONTAINING COMPOSITION” (NAGASE & CO., LTD., priority 2021, published 2024).
# Where two headings read alike, the source gives them in different places.
# Experiments:
# [1] = HPLC area of SRH, SRH dehydrated dimer and EGT before and 4 days after concentration (Reference Example); format: physicochemical; conditions: sample with 15 parts by mass SRH per 100 parts EGT, PDA 210 nm; for HPLC area, 4 days after concentration: concentrated at 30° C., left at room temperature 4 days
# Description: In an SRH 0.108 w/w % aqueous solution (1 mL) was dissolved 7.1 mg of EGT (manufactured by Tetrahedron) to prepare a sample having 15 parts by mass of SRH with respect to 100 parts by mass of EGT.
# For HPLC analysis, 100 μL of the sample was diluted 10 times with water. The remaining 900 μL was concentrated under reduced pressure using an evaporator at 30° C. After the mixture was left to stand at room temperature for 4 days, the mixture was dissolved in 0.9 mL of water. For HPLC analysis, 100 μL of the solution was diluted 10 times with water.
# HPLC analysis was performed under the following conditions.
# Column: YMC-Pack ODS-AQ S-5 μM, 12 nm, 250×4.6 mm I.D.
# Flow rate: 0.5 mL/min, Temperature: 30° C.
# Eluent: 0.1% aqueous formic acid solution
# Retention time: SRH: around 6.6 minutes; SRH dehydrated dimer: around 7.5 minutes; EGT: around 8.7 minutes.
# Escherichia coli = conditions: EGT at 5 mM and 50 mM; cited from earlier work
# [2] = tested on: mouse bone marrow-derived macrophages; conditions: cited from earlier work; for production of cytokines (IL-6, IL-12p40, IL-1β, IL-10): toll-like receptor ligand stimulation
# OT-II CD4+ T cells = conditions: 30 mM EGT; co-culture with F4/80 macrophages; cited from earlier work
SMILES,"HPLC area, before concentration [1]","HPLC area, 4 days after concentration [1]",growth of Escherichia coli (Escherichia coli),"production of cytokines (IL-6, IL-12p40, IL-1β, IL-10) ([2]; 1 mM EGT)","production of cytokines (IL-6, IL-12p40, IL-1β, IL-10) ([2]; 10 mM EGT)",concentration that activates macrophages [2] [mM],Th17 polarization of OT-II CD4+ T cells (OT-II CD4+ T cells)
"C[N+](C)(C)[C@@H](Cc1c[nH]c(=S)[nH]1)C(=O)[O-] [EGT, N,N,N-trimethyl-L-2-thiohistidine]",13959268,14131254,suppresses the growth,not,promoted,≥ 10,promoted
"N[C@@H](CCSC1O[C@H](CO)[C@@H](O)[C@H]1O)C(=O)O (stereo partly drawn) [SRH, S-ribosylhomocysteine]",156690,108189,–,–,–,–,–
